Where two headings read alike, the source gives them in different places.
How the values were obtained:
[1] = tested on: benzodiazepine (BDZ)-binding sites; assay: Radioligand binding assay, [3H]flunitrazepam, rat cerebral cortex; conditions: compound 1 × 10^−6 M;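 also: low percentages indicate weak binding of the compound to the site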
Method: (§1) Binding experiments were conducted in 96-well microplates in a total volume of 200 μL of appropriate buffer. The reaction mixture included 50 μL solution of test compound, 50 μL of radioligand, and […] the tissue suspension. Rat cerebral cortex was used for each receptor. The radioactivity was measured in MicroBeta TriLux 1450-liquid scintillation counter (PerkinElmer, Waltham, MA, USA). Radioligand binding data were analyzed using iterative curve fitting routines (GraphPAD/Prism, Version 3.0, San Diego, CA, USA). Ki values were calculated from the Cheng and Prusoff equation [36].

GABAA receptors = assay: Radioligand binding assay, [3H]muscimol, rat cerebral cortex; conditions: compound 1 × 10^−6 M, [3H]muscimol, rat cerebral cortex;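 also: low percentages indicate weak binding of the compound to the receptor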
Method: as §1, with “The radioactivity was measured in MicroBeta TriLux 1450-liquid scintillation counter (PerkinElmer, Waltham, MA, USA).” left out

[2] = tested on: maximal electroshock-induced seizures; assay: Maximal electroshock-induced seizure (MES) test in mice; format: in vivo, mouse; conditions: for responders at 300 mg/kg / ED50: Mus musculus, ip; for responders at 300 mg/kg: read-out: percent of animals protected against MES-induced seizures; for PI (TD50/ED50): protective index
Method: Additionally, all efforts were made to minimize animal suffering and to use only the number of animals necessary to produce reliable scientific data.
In the initial stage of the study, groups of eight mice were supplied with the compounds (administered intraperitoneally) in a dose of 300 mg/kg and then exposed to electrical impulse at fixed intervals (15, 30, 60, 120 min).
Each mouse was used only once.
Fresh drug solutions were prepared on each day of experimentation and administered at 15, 30, 60 and 120 min. before the initiation of maximal electroconvulsions. Electroconvulsions were produced by a current (0.2 s stimulus duration; 500 V, 50 Hz, fixed current intensity of 25 mA) delivered via ear-clip electrodes by a Rodent Shocker generator (constant-current stimulator Type 221, Hugo Sachs Elektronik, Freiburg, Germany). The criterion for the occurrence of seizure activity was the tonic hind limb extension. The animals were administered with a constant dose of 300 mg/kg of each of the examined compounds and were subjected to MES-induced seizures. […] The animals were administered with different doses of the tested compounds so as to obtain a variable percentage of protection against maximal electroconvulsions, allowing the construction of dose-response relationship lines for each examined compound administered i.p. at various pretreatment times, according to Litchfield and Wilcoxon. Each ED50 value represents the dose of the studied compounds that is required to protect 50% of the animals tested against MES-induced seizures.

[3] = 300 mg/kg i.p., pretreatment time 15 min, mice
[4] = 300 mg/kg i.p., pretreatment time 30 min, mice
[5] = 300 mg/kg i.p., pretreatment time 60 min, mice
[6] = 300 mg/kg i.p., pretreatment time 120 min, mice
[7] = 0.25 h, 300 mg/kg i.p., pretreatment time 15 min, mice
[8] = 0.5 h, 300 mg/kg i.p., pretreatment time 30 min, mice
[9] = 1 h, 300 mg/kg i.p., pretreatment time 60 min, mice
[10] = 2 h, 300 mg/kg i.p., pretreatment time 120 min, mice

| SMILES | Percent of Specific Binding, BDZ [1] | Percent of Specific Binding, GABAA (GABAA receptors) | p/t, number of animals protected against MES-induced seizures / number tested [2, 3] | p/t, number of animals protected against MES-induced seizures / number tested [2, 4] | p/t, number of animals protected against MES-induced seizures / number tested [2, 5] | p/t, number of animals protected against MES-induced seizures / number tested [2, 6] | responders at 300 mg/kg [2, 7] | responders at 300 mg/kg [2, 8] | responders at 300 mg/kg [2, 9] | responders at 300 mg/kg [2, 10] | melting point | further results |
| --- | --- | --- | --- | --- | --- | --- | --- | --- | --- | --- | --- | --- |
| Cc1ccc(-c2nc3ccc(C)cn3c2CC(=O)N(C)C)cc1 [Zolpidem, reference compound] | 73% |  |  |  |  |  |  |  |  |  |  |  |
| CN1C(=O)CN=C(c2ccccc2)c2cc(Cl)ccc21 [Diazepam, reference compound] | 83% |  |  |  |  |  |  |  |  |  |  |  |
| NCCCC(=O)O [GABA, γ-aminobutyric acid] |  | 82% |  |  |  |  |  |  |  |  |  |  |
| S=c1[nH]nc(-c2cccc(Cl)c2)n1-c1ccccc1Br [Compound 5a, 4-(2-Bromophenyl)-5-(3-chlorophenyl)-2,4-dihydro-3H-1,2,4-triazole-3-thione] | 12% | 2% | 0/8 | 0/8 | 1/8 | 1/8 | 0% | 0% | 12.5% | 12.5% |  |  |
| Cc1ccc(-n2c(-c3cccc(Cl)c3)nn(CN3CCN(c4ccc(F)cc4)CC3)c2=S)cc1 [Compound 24a, 5-(3-Chlorophenyl)-2-{[4-(4-fluorophenyl)piperazin-1-yl]methyl}-4-(4-methylphenyl)-2,4-dihydro-3H-1,2,4-triazole-3-thione] | 13% | 21% | 0/8 | 0/8 | 0/8 | 0/8 | 0% | 0% | 0% | 0% |  |  |
| CC(=O)c1ccc(-n2c(-c3cccc(Cl)c3)n[nH]c2=S)cc1 [Compound 11a, 4-(4-Acetylphenyl)-5-(3-chlorophenyl)-2,4-dihydro-3H-1,2,4-triazole-3-thione] |  |  | 1/8 | 1/8 | 1/8 | 0/8 | 12.5% | 12.5% | 12.5% | 0% | 218 to 220 °C |  |
| Cc1ccc(-n2c(-c3cccc(Cl)c3)nn(CN3CCN(c4ccccc4)CC3)c2=S)cc1 [Compound 23a, 5-(3-Chlorophenyl)-4-(4-methylphenyl)-2-[(4-phenylpiperazin-1-yl)methyl]-2,4-dihydro-3H-1,2,4-triazole-3-thione] | 7% | 23% | 0/8 | 0/8 | 0/8 | 0/8 | 0% | 0% | 0% | 0% |  |  |
| S=c1n(CN2CCN(c3ccccc3)CC2)nc(-c2ccc(Cl)cc2)n1-c1ccc(Br)cc1 [Compound 29a, 4-(4-Bromophenyl)-5-(4-chlorophenyl)-2-[(4-phenylpiperazin-1-yl)methyl]-2,4-dihydro-3H-1,2,4-triazole-3-thione] |  |  | 0/8 | 0/8 | 0/8 | 0/8 | 0% | 0% | 0% | 0% | 178 to 180 °C |  |
| Fc1ccc(-n2c(-c3ccc(Cl)cc3)n[nH]c2=S)c(F)c1 [Compound 13a, 5-(4-Chlorophenyl)-4-(2,4-difluorophenyl)-2,4-dihydro-3H-1,2,4-triazole-3-thione] |  |  | 8/8 | 8/8 | 8/8 | 8/8 | 100% | 100% | 100% | 100% | 196 to 198 °C | ED50 ([2]; pretreatment time 15 min, mice, read-out: ED50 ± S.E. (MES test)): 104 ± 15.8 mg/kg; ED50 ([2]; pretreatment time 30 min, mice, read-out: ED50 ± S.E. (MES test)): 100 ± 30.1 mg/kg; ED50 ([2]; pretreatment time 60 min, mice, read-out: ED50 ± S.E. (MES test)): 109 ± 11.9 mg/kg; ED50 ([2]; pretreatment time 120 min, mice, read-out: ED50 ± S.E. (MES test)): 80 ± 10.9 mg/kg; ED50 ([2]; pretreatment times 15, 30, 60, 120 min, read-out: ED50 (MES), range over pretreatment times): 80 to 109 mg/kg; time to peak of the anticonvulsant action ([2]; after i.p. administration, MES, mice): 120 min; PI (TD50/ED50) ([2]; chimney TD50 / MES ED50, pretreatment time 15 min): 1.9; PI (TD50/ED50) ([2]; chimney TD50 / MES ED50, pretreatment time 30 min): 1.9; PI (TD50/ED50) ([2]; chimney TD50 / MES ED50, pretreatment time 60 min): 1.6; PI (TD50/ED50) ([2]; chimney TD50 / MES ED50, pretreatment time 120 min): 2.7; onset of action ([2]; significant protection as early as 15 min after parenteral administration, MES, mice): quick onset of action |
| S=c1n(CN2CCN(c3ccccc3)CC2)nc(-c2ccc(Cl)cc2)n1-c1ccccc1Br [Compound 26a, 4-(2-Bromophenyl)-5-(4-chlorophenyl)-2-[(4-phenylpiperazin-1-yl)methyl]-2,4-dihydro-3H-1,2,4-triazole-3-thione] |  |  | 0/8 | 0/8 | 0/8 | 0/8 | 0% | 0% | 0% | 0% | 140 to 142 °C |  |
| S=c1[nH]nc(-c2ccc(Cl)cc2)n1-c1ccc(Cl)cc1Cl [Compound 14a, 5-(4-Chlorophenyl)-4-(2,4-dichlorophenyl)-2,4-dihydro-3H-1,2,4-triazole-3-thione] |  |  |  |  |  |  |  |  |  |  | 238 to 240 °C | acute adverse effects at the screening dose ([2]; 300 mg/kg i.p., mice, protective effect in MES could not be established): acute adverse effects |
| Fc1cccc(-n2c(-c3cccc(Cl)c3)n[nH]c2=S)c1 [Compound 2a, 5-(3-Chlorophenyl)-4-(3-fluorophenyl)-2,4-dihydro-3H-1,2,4-triazole-3-thione] |  |  | 0/8 | 0/8 | 0/8 | 0/8 | 0% | 0% | 0% | 0% | 221 to 222 °C |  |
| Fc1ccc(N2CCN(Cn3nc(-c4ccc(Cl)cc4)n(-c4ccccc4Br)c3=S)CC2)cc1 [Compound 27a, 4-(2-Bromophenyl)-5-(4-chlorophenyl)-2-{[4-(4-fluorophenyl)piperazin-1-yl]methyl}-2,4-dihydro-3H-1,2,4-triazole-3-thione] |  |  | 0/8 | 0/8 | 0/8 | 0/8 | 0% | 0% | 0% | 0% | 168 to 170 °C |  |

Source: publication PMC6271529, “Studies on the Anticonvulsant Activity and Influence on GABA-ergic Neurotransmission of 1,2,4-Triazole-3-thione-Based Compounds” (Molecules, 2014)
